Measurements reported in patent publication US11866641B2, “Method for fracking subterranean geological formation with surfactant-containing fluid” (KING FAHD UNIVERSITY OF PETROLEUM AND MINERALS, priority 2019, dated 2024).
“Also recorded” adds a separate entry of the source.

Columns and labels:
Format in all cases: physicochemical
[1] = Salt tolerance / solubility of surfactant solutions in DW, SW and FW; details: for Solubility and salt tolerance in DW, SW and FW: 10 wt % solutions in DW; for Solubility and salt tolerance in DW, SW and FW / Precipitation or phase separation of solutions in FW, SW and DW / Precipitation or phase separation in formation water (FIG. 5) / Precipitation or phase separation in seawater (FIG. 4): 90 days at 90° C.; for Solubility in simulated SW and FW: up to 90 days at 90° C.
Description: 10 wt % solutions of OPAC, OPAS, and OPAH were prepared in DW, SW, and FW and kept in the oven for 90 days at 90° C.

[2] = Thermogravimetric analysis (TGA), thermal stability; details: 20° C./min, nitrogen; for Thermal stability by TGA, stable up to: 30-500° C.
Description: TGA graph was obtained using SDT Q600 machine (TA instrument) with continuous heating at 20° C./min. The heating range 30-500° C. with a stable flow of nitrogen at 100 mL/min.

[3] = Surface tension, force tensiometer with Wilhelmy plate; details: water
Description: Surface activities of OPAC, OPAS, and OPAH were determined using a force tensiometer with a platinum Wilhelmy plate (Sigma 702, Biolin Scientific). The test temperatures were 30° C. and 60° C. The plate was flushed with deionized water before heating it red hot to ensure it was properly cleaned. The surface tension of deionized water was measured three times to check if the cleanup procedure yielded repeatable results. The samples were covered to minimize evaporation, but with enough space to let the plate go through the covering during the measurement.
The surface tension data was used to estimate other properties using the following equations:
[formula] [formula] [formula] where cmc is critical micelle concentration, γ0 represents surface tension of water without surfactant, γcmc is surface tension at cmc, πcmc Represents the ability of the surfactant to reduce the surface tension, rmax is the maximum surface access, Avogadro number is represented by NA, dγ/dlnC is the slope, C represents the concentration of surfactant, temperature, and gas constant are represented by T and R, respectively, Amin is the minimum area per molecule, and the values of n is 1 for zwitterionic surfactants. Synthesis

| Thermal stability by TGA, stable up to [2] | Initial loss in weight (TGA; associated with water and solvent) [2] | Temperature of big weight loss / decomposition temperature (TGA) [2] | Amin (minimum area per molecule) ([3]; 30° C.) | cmc ([3]; 30° C.) | Γmax × 10^6 (maximum surface excess) ([3]; 30° C.) | γcmc (surface tension at cmc) ([3]; 30° C.) | πcmc (ability to reduce the surface tension) ([3]; 30° C.) | Amin (minimum area per molecule) ([3]; 60° C.) | cmc ([3]; 60° C.) | Γmax × 10^6 (maximum surface excess) ([3]; 60° C.) | γcmc (surface tension at cmc) ([3]; 60° C.) | πcmc (ability to reduce the surface tension) ([3]; 60° C.) | Substance | Solubility and salt tolerance in DW, SW and FW [1] | Precipitation or phase separation of solutions in FW, SW and DW [1] | Precipitation or phase separation in formation water (FIG. 5) [1] | Precipitation or phase separation in seawater (FIG. 4) [1] | Solubility in simulated SW and FW [1] |
| --- | --- | --- | --- | --- | --- | --- | --- | --- | --- | --- | --- | --- | --- | --- | --- | --- | --- | --- |
| ~300 °C | 30% | 312 °C | 0.97 nm^2 | 0.000346 mol/L | 1.70 mol m^−2 | 34.67 mN m^−1 | 37.33 mN/m | 1.04 nm^2 | 9.7e-05 mol/L | 1.58 mol m^−2 | 32.24 mN m^−1 | 39.76 mN/m | Oleyl Polyoxyethylene Amindopropyl Carboxybetaine [OPAC] | compatible and soluble with all kinds of water; also recorded: excellent solubility | no precipitation or phase separation was detected | no signs of precipitation or phase separation | no signs of precipitation or phase separation | soluble |
| ~300 °C | 29% | 307 °C | 0.62 nm^2 | 7.1e-05 mol/L | 2.66 mol m^−2 | 36.89 mN m^−1 | 34.96 mN/m | 0.71 nm^2 | 3.35e-05 mol/L | 2.33 mol m^−2 | 33.68 mN m^−1 | 38.07 mN/m | Oleyl Polyoxyethylene Amidopropyl Hydroxy Sulfobetaine [OPAH] | compatible and soluble with all kinds of water; also recorded: excellent solubility | no precipitation or phase separation was detected | no signs of precipitation or phase separation | no signs of precipitation or phase separation | soluble |
| ~300 °C | 25% | 295 °C | 0.77 nm^2 | 3.66e-05 mol/L | 2.15 mol m^−2 | 37.04 mN m^−1 | 35.59 mN/m | 1.01 nm^2 | 3.41e-05 mol/L | 1.64 mol m^−2 | 33.74 mN m^−1 | 38.26 mN/m | Oleyl Polyoxyethylene Amidopropyl Sulfobetaine [OPAS] | compatible and soluble with all kinds of water; also recorded: excellent solubility | no precipitation or phase separation was detected | no signs of precipitation or phase separation | no signs of precipitation or phase separation | soluble |
